# Laboratory results as given in publication PMC4240039, “Interactions of ABCG2 (BCRP) with epidermal growth factor receptor kinase inhibitors developed for molecular imaging” (Frontiers in Pharmacology, 2014).
# Tests used:
# BCRP = target: T1, BCRP (Homo sapiens, UniProt Q9UNQ0); test: BODIPY-prazosin accumulation assay in MDCK-BCRP cells; format: cell-based; conditions: 500 nM BODIPY-prazosin, 1 h incubation; test compounds 400 nM
# T1 construct: expressed in transfected cells; host or cells: MDCK (MDCKII) cells, pcDNA3 vector; gift from Prof; Qingcheng Mao
# T1 sequence (Q9UNQ0 1-655): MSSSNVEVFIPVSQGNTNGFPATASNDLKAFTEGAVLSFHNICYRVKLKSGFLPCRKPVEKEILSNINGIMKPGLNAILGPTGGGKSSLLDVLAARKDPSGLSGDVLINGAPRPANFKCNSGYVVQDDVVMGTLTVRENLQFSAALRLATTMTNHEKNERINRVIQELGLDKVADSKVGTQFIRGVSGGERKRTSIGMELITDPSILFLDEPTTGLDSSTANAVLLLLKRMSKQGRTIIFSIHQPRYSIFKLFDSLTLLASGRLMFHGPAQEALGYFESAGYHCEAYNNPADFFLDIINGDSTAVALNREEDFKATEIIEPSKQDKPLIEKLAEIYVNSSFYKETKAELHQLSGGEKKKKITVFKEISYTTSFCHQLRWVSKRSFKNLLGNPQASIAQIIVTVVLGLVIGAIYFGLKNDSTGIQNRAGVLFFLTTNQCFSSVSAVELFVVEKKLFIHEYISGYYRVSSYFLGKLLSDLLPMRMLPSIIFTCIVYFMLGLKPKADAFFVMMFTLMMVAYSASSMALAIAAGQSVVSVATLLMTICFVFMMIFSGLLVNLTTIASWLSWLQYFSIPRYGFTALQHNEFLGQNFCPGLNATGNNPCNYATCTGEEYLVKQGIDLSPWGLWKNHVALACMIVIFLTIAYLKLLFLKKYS
# Protocol: Accumulation assays with fluorescent substrates of eﬄux transporter are commonly utilized to determine the inhibitory effect of a test compound ([Brouwer et al., 2013]). In this study, MDCK-CT and MDCK-BCRP cells were seeded at density of 20 × 10^4 cells/well in 24 well plates. Experiments were performed two days after achieving 100% confluent monolayers. Prior to the experiment, the medium was removed and cells were incubated for 1 h with one of the test compounds dissolved in DMEM with 5 mM 4-(2-Hydroxyethyl)-1-piperazineethanesulfonic acid (HEPES), pH 7.4. In the accumulation phase cells were co-incubated with 500 nM BODIPY-prazosin (a BCRP/P-gp substrate; [Dey et al., 1997]; [Ni et al., 2010]) and one of the test compounds dissolved in DMEM with 5 mM HEPES. After 1 h, the cells were washed three times with ice-cold PBS. Intracellular fluorescence intensity of BODIPY-prazosin was measured within 1 h by a plate reader (Synergy HT, BioTek, Winooski, VT, USA) with excitation wavelength 485 nm and emission wavelength 528 nm.
# FIGURE 4 Effect of EGFRIs on BODIPY-prazosin accumulation. Cell protein concentration-normalized BODIPY prazosin fluorescence in MDCK-BCRP cells were evaluated in the presence and the absence of 400 nM of the tested compounds following 1 h incubation.
# P-gp = system: P-gp; design: method as in Abourbeh et al., 2007; conditions: ref Abourbeh et al., 2007; cited from earlier work
# human BCRP ATPase = target: T2, human BCRP ATPase (Homo sapiens, UniProt Q9UNQ0); test: BCRP ATPase activation assay ([…] kit, Sf9 membrane preparations); format: biochemical; conditions: for Activation of BCRP ATPase: 400 nM (submicromolar), Sf9 membranes containing BCRP, vanadate-sensitive ATPase activity; for BCRP ATPase activation relative to that produced by gefitinib: 400 nM, Sf9 membranes
# T2 construct: purchased SOLVO Biotechnology, Szeged, Hungary; host or cells: Sf9 membrane preparations
# T2 sequence (Q9UNQ0 1-655): T1 sequence (Q9UNQ0 1-655)
# Protocol: ATPase activity was evaluated using […] kits (SOLVO Biotechnology, Szeged, Hungary), according to the manufacturer’s instructions.
# FIGURE 2 Interactions of EGFRIs with BCRP ATPase. (A) Activation of BCRP-ATPase in Sf9 membrane preparations containing BCRP. Membranes were incubated with ATP and the tested compounds at 400 nM in the presence and absence of sodium orthovanadate. (B) Inhibition of sulfasalazine-stimulated BCRP-ATPase. The effect of EGFRIs was evaluated in sulfasalazine (10 μM)-stimulated membranes. Data are presented as means ± SD of the vanadate-sensitive ATPase activity from two experiments in duplicates.
# [1] = MTT cell proliferation assay, BCRP-overexpressing cells; format: cell-based, canine; conditions: dog, MDCK-BCRP cells (MDCK cells transfected with wild-type BCRP), read-out: IC50 for inhibition of cell proliferation in MDCK-BCRP cells
# Protocol: (§1) Madin-Darbey canine kidney (MDCK) cells transfected with pcDNA empty vector (MDCK-pcDNA3; MDCK-CT) and cDNA coding for wild-type BCRP (MDCK-BCRP) cells were a generous gift from Prof. Qingcheng Mao (University of Washington, Seattle, WA, USA). The human lung carcinoma cell lines A549 and HCC827 cells were provided by Prof. Eyal Mishani.
# Madin-Darbey canine kidney vector (MDCK-pcDNA3) and MDCK-BCRP cells were grown in Eagle’s minimum essential medium (MEM) supplemented with 10% fetal bovine serum, 2 mM L-glutamine, 100 units/mL penicillin, and 100 μg/mL streptomycin, at 37∘C and 5% CO2-humidified incubator. The BCRP positive cells were selected by supplementation of 0.05 mg/mL gentamicin to the growth medium. The adherent cells, continuously cultivated in 10 cm^2 cell culture plates, were grown to nearly 80–90% confluence before they were harvested by trypsin-EDTA 0.25% solution. A549 were grown in Ham’s F12 growth medium and HCC827 were grown in RPMI-1640 growth medium. The cells were treated as described above.
# (§2) The assay was performed as described earlier ([Rajendra et al., 2003]) with minor modifications. Briefly, Cells were seeded at density of 80 × 10^3 cells per well in 24 well plates. On the following day, the cells were incubated (in hexaplicates) with 0.2–102.4 μM of the tested EGFRIs or with the vehicle in the growth medium for 72 h. Then, the medium was removed and 300 μl of 0.5 mg/mL MTT solution in Hank’s Balanced Salt Solution (HBSS) was added to each well. After 2 h incubation at 37∘C, the MTT solution was removed and the cells were washed three times with HBSS, then the culture plates were incubated with 500 μl dimethyl sulphoxide (DMSO) for 15 min at room temperature. The absorption was detected at 540 nm using the Synergy plate reader. The proliferation of cells from MTT studies was expressed as a percent of control, DMSO-treated cells of the same type. An inhibitory sigmoidal model was fitted to the experimental data using Phoenix WinNonlin 6.3 (Pharsight, Mountain View, CA, USA).
# MDCK-CT cells = test: MTT cell proliferation assay, vector control cells; format: cell-based, canine; conditions: Canis lupus familiaris, 72 h, read-out: IC50 for inhibition of control cell proliferation
# Protocol: as §1
# Madin-Darbey canine kidney vector (MDCK-pcDNA3) and MDCK-BCRP cells were grown in Eagle’s minimum essential medium (MEM) supplemented with 10% fetal bovine serum, 2 mM L-glutamine, 100 units/mL penicillin, and 100 μg/mL streptomycin, at 37∘C and 5% CO2-humidified incubator. The BCRP positive cells were selected by supplementation of 0.05 mg/mL gentamicin to the growth medium. […] The cells were treated as described above.
# as §2, with “Briefly,” for “The assay was performed as described earlier ([Rajendra et al., 2003]) with minor modifications. Briefly,”, “On the following day, the cells were incubated (in hexaplicates) with 0.2–102.4 μM of the tested EGFRIs or with the vehicle in the growth medium for 72 h.” left out
# [2] = design: method as in Dissoki et al., 2007; conditions: ref Dissoki et al., 2007; cited from earlier work
# EGFR = system: EGFR; design: method as in earlier work; conditions: A431 cell lysates; ref Shaul et al., 2004; Mishani et al., 2005; Dissoki et al., 2007; read-out: EGFR binding potency IC50; cited from earlier work
Activation of BCRP ATPase (human BCRP ATPase),BCRP ATPase activation relative to that produced by gefitinib (human BCRP ATPase) [%],SMILES,BODIPY-prazosin accumulation in MDCK-BCRP cells (BCRP),P-gp substrate status (P-gp),IC50 at 72 h [1] [nM],IC50 (MDCK-CT cells) [nM],Log P [2],IC50 (EGFR) [nM]
activated BCRP ATPase,–,CN(C)C/C=C/C(=O)Nc1ccc2ncnc(Nc3cc(Cl)c(Cl)cc3F)c2c1 [ML04],–,found to be a P-gp substrate,> 50000,2100 ± 600,3.9,–
activated BCRP ATPase,≤ 40,O=C(CCl)Nc1ccc2ncnc(Nc3cc(Cl)c(Cl)cc3F)c2c1 [ML05],–,–,–,–,4.12,10
activated BCRP ATPase,≤ 40,CN(C)C/C=C/C(=O)Nc1ccc2ncnc(Nc3cccc(I)c3)c2c1 [ML06],–,–,> 50000,2200 ± 700,–,0.05 to 5
no activating effect,–,O=C(/C=C/CN(CCO)CCO)Nc1cc2c(Nc3cc(Cl)c(Cl)cc3F)ncnc2cc1OCCOCCOCCOCCF [ML10],–,–,–,–,–,–

# The remaining lines, values behind:
SMILES,Activation of BCRP ATPase (human BCRP ATPase),BCRP ATPase activation relative to that produced by gefitinib (human BCRP ATPase) [%],BODIPY-prazosin accumulation in MDCK-BCRP cells (BCRP),P-gp substrate status (P-gp),IC50 at 72 h [1] [nM],IC50 (MDCK-CT cells) [nM],Log P [2],IC50 (EGFR) [nM]
"COc1ccc2c3c([nH]c2c1)[C@H](C=C(C)C)N1C(=O)[C@@H]2CCCN2C(=O)[C@@H]1C3 [FTC, fumitremorgin C]",–,–,significantly (p < 0.01) enhanced,–,–,–,–,–
O=C(CCl)Nc1cc2c(Nc3cc(Cl)c(Cl)cc3F)ncnc2cc1OCCOCCOCCOCCOCCOCCF [PEG6-ML05],no activating effect,–,–,–,> 50000,2800 ± 3100,4.75,30 to 45
"COCC(=O)Nc1ccc2ncnc(Nc3cccc(Br)c3)c2c1 [methoxy-Br-ML03, N-{4-[(3-Bromo-phenyl)amino]-quinazoline-6-yl}-2-methoxyacetamide]",activated BCRP ATPase,–,–,–,> 50000,1800 ± 1200,–,–
COCC(=O)Nc1ccc2ncnc(Nc3cc(Cl)c(Cl)cc3F)c2c1 [methoxy-ML03],activated BCRP ATPase,–,–,–,–,–,–,252
